Results published in article PMC9475448, “What a difference a methylene makes: replacing Glu with Asp or Aad in the Lys-urea-Glu pharmacophore of PSMA-targeting radioligands to reduce kidney and salivary gland uptake” (Theranostics, 2022).
Entries after “also recorded” stand apart in the source; their conditions may differ. Like-named read-outs stand apart in the source and are kept apart here.

Legend:
LNCaP tumor-bearing mice [1] = test: Longitudinal SPECT/CT imaging of 177Lu-labeled ligands; assay type: in vivo
Experimental: SPECT/CT imaging experiments were conducted using the MILabs (Utrecht, The Netherlands) U-SPECT-II/CT scanner. Each tumor-bearing mouse (n = 1-2 was injected with ∼37 MBq (50-250 pmol) of ^177Lu-labeled compound through a lateral caudal tail vein. The mice were imaged at 1, 4, 24, 72, and 120 h after injection. At each time point, a 5-min CT scan was conducted first for anatomical reference followed by 2 × 30-min static emission scans acquired in list mode.

LNCaP tumor-bearing mice [2] = test: Radioligand therapy study in LNCaP tumor-bearing NRG mice
LNCaP tumor-bearing mice [3] = details: mouse, in vivo
LNCaP tumor-bearing mice [4] = test: Ex vivo biodistribution of 177Lu-labeled ligands in LNCaP tumor-bearing NRG mice
[5] = 1 h post-injection, listed as [177Lu]Lu-HTK03149
[6] = 4 h post-injection, listed as [177Lu]Lu-HTK03149

O=C([O-])CN1CCN(CC(=O)[O-])CCN(CC(=O)NCC2CCC(C(=O)NC(Cc3c4ccccc4cc4ccccc34)C(=O)NCCCCC(NC(=O)NC(CCCC(=O)O)C(=O)O)C(=O)O)CC2)CCN(CC(=O)[O-])CC1.[177Lu+3] (centres unmarked) [[^177Lu]Lu-HTK03149]
Excretion pathway (SPECT imaging) (LNCaP tumor-bearing mice [1]; mouse, in vivo): excreted mainly through the renal pathway; also recorded: excreted mainly via the renal pathway | Tumor size change in SPECT/CT images (LNCaP tumor-bearing mice [1]; ~37 MBq injected): tumors shrank from Day 1 to Day 5 | Median survival (LNCaP tumor-bearing mice [2]; 9.3 MBq injected): 52 days | Median survival (LNCaP tumor-bearing mice [2]; 18.5 MBq injected): 63 days | Median survival (LNCaP tumor-bearing mice [2]; 37 MBq injected): 88 days | Median survival (LNCaP tumor-bearing mice [2]; 74 MBq injected): 142 days | Median survival (LNCaP tumor-bearing mice [2]; 148 MBq injected): >180 days | Weight loss of treated mice (LNCaP tumor-bearing mice [2]; injected radioactivity as high as 148 MBq): did not observe any weight loss | Spleen uptake (LNCaP tumor-bearing mice [3]): 0.142 ± 0.062 %IA/g | Adrenal glands uptake (LNCaP tumor-bearing mice [4]; 1 h post-injection): 0.352 ± 0.071 %IA/g | Blood uptake (LNCaP tumor-bearing mice [4]; 1 h post-injection): 0.876 ± 0.073 %IA/g | Blood:Salivary gland uptake ratio (LNCaP tumor-bearing mice [4]; 1 h post-injection): 3.98 ± 0.65 | Bone uptake (LNCaP tumor-bearing mice [4]; 1 h post-injection): 0.072 ± 0.020 %IA/g | Brain uptake (LNCaP tumor-bearing mice [4]; 1 h post-injection): 0.022 ± 0.002 %IA/g | Fat uptake (LNCaP tumor-bearing mice [4]; 1 h post-injection): 0.136 ± 0.049 %IA/g | Heart uptake (LNCaP tumor-bearing mice [4]; 1 h post-injection): 0.281 ± 0.036 %IA/g | Intestines uptake (LNCaP tumor-bearing mice [4]; 1 h post-injection): 0.267 ± 0.063 %IA/g | Kidneys uptake (LNCaP tumor-bearing mice [4]; 1 h post-injection): 7.67±1.35 %IA/g | Lacrimal glands uptake (LNCaP tumor-bearing mice [4]; 1 h post-injection): 0.022 ± 0.006 %IA/g | Liver uptake (LNCaP tumor-bearing mice [4]; 1 h post-injection): 0.264 ± 0.031 %IA/g | Lungs uptake (LNCaP tumor-bearing mice [4]; 1 h post-injection): 0.721 ± 0.056 %IA/g | Muscle uptake (LNCaP tumor-bearing mice [4]; 1 h post-injection): 0.182 ± 0.138 %IA/g | Pancreas uptake (LNCaP tumor-bearing mice [4]; 1 h post-injection): 0.165 ± 0.028 %IA/g | Salivary glands uptake (LNCaP tumor-bearing mice [4]; 1 h post-injection): 0.23±0.06 %IA/g | Spleen uptake (LNCaP tumor-bearing mice [4]; 1 h post-injection): 0.260 ± 0.045 %IA/g | Stomach uptake (LNCaP tumor-bearing mice [4]; 1 h post-injection): 0.096 ± 0.020 %IA/g | Testes uptake (LNCaP tumor-bearing mice [4]; 1 h post-injection): 0.255 ± 0.019 %IA/g | Thyroid uptake (LNCaP tumor-bearing mice [4]; 1 h post-injection): 0.269 ± 0.021 %IA/g | Tumor uptake (LNCaP tumor-bearing mice [4]; 1 h post-injection): 13.96 ± 2.155 %IA/g | Tumor:Blood uptake ratio (LNCaP tumor-bearing mice [4]; 1 h post-injection): 16.0 ± 2.44 | Tumor:Muscle uptake ratio (LNCaP tumor-bearing mice [4]; 1 h post-injection): 101 ± 48.3 | Tumor:Salivary gland uptake ratio (LNCaP tumor-bearing mice [4]; 1 h post-injection): 63.4 ± 13.6 | Kidneys uptake (LNCaP tumor-bearing mice [4]; [5]): 7.672 ± 1.346 %IA/g | Salivary glands uptake (LNCaP tumor-bearing mice [4]; [5]): 0.227 ± 0.062 %IA/g | Adrenal glands uptake (LNCaP tumor-bearing mice [4]; 4 h post-injection): 0.085 ± 0.007 %IA/g | Blood uptake (LNCaP tumor-bearing mice [4]; 4 h post-injection): 0.167 ± 0.033 %IA/g | Blood:Salivary gland uptake ratio (LNCaP tumor-bearing mice [4]; 4 h post-injection): 3.32 ± 0.59 | Bone uptake (LNCaP tumor-bearing mice [4]; 4 h post-injection): 0.016 ± 0.010 %IA/g | Brain uptake (LNCaP tumor-bearing mice [4]; 4 h post-injection): 0.010 ± 0.001 %IA/g | Fat uptake (LNCaP tumor-bearing mice [4]; 4 h post-injection): 0.021 ± 0.003 %IA/g | Heart uptake (LNCaP tumor-bearing mice [4]; 4 h post-injection): 0.070 ± 0.013 %IA/g | Intestines uptake (LNCaP tumor-bearing mice [4]; 4 h post-injection): 0.185 ± 0.067 %IA/g | Kidneys uptake (LNCaP tumor-bearing mice [4]; 4 h post-injection): 1.67±0.38 %IA/g | Lacrimal glands uptake (LNCaP tumor-bearing mice [4]; 4 h post-injection): 0.029 ± 0.014 %IA/g | Liver uptake (LNCaP tumor-bearing mice [4]; 4 h post-injection): 0.108 ± 0.010 %IA/g | Lungs uptake (LNCaP tumor-bearing mice [4]; 4 h post-injection): 0.169 ± 0.012 %IA/g | Muscle uptake (LNCaP tumor-bearing mice [4]; 4 h post-injection): 0.021 ± 0.005 %IA/g | Pancreas uptake (LNCaP tumor-bearing mice [4]; 4 h post-injection): 0.034 ± 0.004 %IA/g | Salivary glands uptake (LNCaP tumor-bearing mice [4]; 4 h post-injection): 0.05±0.01 %IA/g | Spleen uptake (LNCaP tumor-bearing mice [4]; 4 h post-injection): 0.089 ± 0.020 %IA/g | Stomach uptake (LNCaP tumor-bearing mice [4]; 4 h post-injection): 0.049 ± 0.021 %IA/g | Testes uptake (LNCaP tumor-bearing mice [4]; 4 h post-injection): 0.056 ± 0.005 %IA/g | Thyroid uptake (LNCaP tumor-bearing mice [4]; 4 h post-injection): 0.066 ± 0.008 %IA/g | Tumor uptake (LNCaP tumor-bearing mice [4]; 4 h post-injection): 20.9±2.99 %IA/g | Tumor:Muscle uptake ratio (LNCaP tumor-bearing mice [4]; 4 h post-injection): 1028 ± 227 | Tumor:Salivary gland uptake ratio (LNCaP tumor-bearing mice [4]; 4 h post-injection): 415 ± 60.5 | Kidneys uptake (LNCaP tumor-bearing mice [4]; [6]): 1.666 ± 0.378 %IA/g | Salivary glands uptake (LNCaP tumor-bearing mice [4]; [6]): 0.051 ± 0.010 %IA/g | Tumor uptake (LNCaP tumor-bearing mice [4]; [6]): 20.90 ± 2.988 %IA/g | Adrenal glands uptake (LNCaP tumor-bearing mice [4]; 24 h post-injection): 0.073 ± 0.018 %IA/g | Blood uptake (LNCaP tumor-bearing mice [4]; 24 h post-injection): 0.116 ± 0.007 %IA/g | Blood:Salivary gland uptake ratio (LNCaP tumor-bearing mice [4]; 24 h post-injection): 2.37 ± 0.24 | Bone uptake (LNCaP tumor-bearing mice [4]; 24 h post-injection): 0.025 ± 0.003 %IA/g | Brain uptake (LNCaP tumor-bearing mice [4]; 24 h post-injection): 0.006 ± 0.001 %IA/g | Fat uptake (LNCaP tumor-bearing mice [4]; 24 h post-injection): 0.017 ± 0.002 %IA/g | Heart uptake (LNCaP tumor-bearing mice [4]; 24 h post-injection): 0.065 ± 0.004 %IA/g | Intestines uptake (LNCaP tumor-bearing mice [4]; 24 h post-injection): 0.086 ± 0.047 %IA/g | Kidneys uptake (LNCaP tumor-bearing mice [4]; 24 h post-injection): 0.596 ± 0.109 %IA/g | Lacrimal glands uptake (LNCaP tumor-bearing mice [4]; 24 h post-injection): 0.004 ± 0.005 %IA/g | Liver uptake (LNCaP tumor-bearing mice [4]; 24 h post-injection): 0.103 ± 0.008 %IA/g | Lungs uptake (LNCaP tumor-bearing mice [4]; 24 h post-injection): 0.122 ± 0.015 %IA/g
